The text below walks through data of paper PMC3818563, “Effect of Iboga Alkaloids on µ-Opioid Receptor-Coupled G Protein Activation” (PLoS ONE, 2013).

Data set [1] has as its target T1, μ-opioid receptor (MOR) (Rattus norvegicus, UniProt P33535). In words: [35S]GTPγS binding in Sprague-Dawley rat thalamic membranes (Reith lab). The settings on record: for Ki: Antagonist activity Ke (functional Ki), Sprague-Dawley rat thalamic membranes (Reith lab), versus DAMGO (1 µM) as agonist. The arrangement: from tissue; host or cells: rat thalamus membranes (Sprague-Dawley; also Fischer F344 in the Janowsky lab). In kind it is biochemical.

Data set [2] deals with μ-opioid receptor (MOR). The settings on record: cited from earlier work.
A short description of data set [3]: Solubility of stocks in water. The following applies: thermodynamic from solid.
Data set [4] concerns the target T1, μ-opioid receptor (MOR). In words: [35S]GTPγS binding in Sprague-Dawley / Fischer 344 rat thalamic membranes (Janowsky lab). The data set is classed as biochemical. The arrangement: from tissue; host or cells: rat thalamus membranes (Sprague-Dawley; also Fischer F344 in the Janowsky lab). (In general: GTPγS is a poorly hydrolysed GTP analogue; its binding reports G protein activation.)

The next data set deals with NMDA receptor. The settings on record: cited from earlier work.
A further data set addresses T2, mouse mMOR (Mus musculus, UniProt P42866).
T2 construct: expressed in transfected cells
In words: [35S]GTPγS binding in mMOR-expressing HEK 293 cells (Reith lab). The data set is classed as biochemical.

In another data set the target is T3, rat rMOR (Rattus norvegicus, UniProt P33535).
T3 construct: expressed in transfected cells
In words: [35S]GTPγS binding in rMOR-expressing CHO cells (Janowsky lab). The following applies: read-out: Agonist activity Emax (%). In kind it is biochemical.

For data set [5], the target named is T1, μ-opioid receptor (MOR). In words: [35S]GTPγS binding in Sprague-Dawley rat thalamic membranes (Childers lab). The data set is classed as biochemical. The arrangement: from tissue; host or cells: rat thalamus membranes (Sprague-Dawley; also Fischer F344 in the Janowsky lab).
Data set [6] concerns the target T1, μ-opioid receptor (MOR). In words: In vitro autoradiography of agonist-stimulated [35S]GTPγS binding in rat brain sections (Childers lab). The settings on record: noribogaine by itself at concentrations up to 30 µM. The data set is classed as biochemical. The arrangement: from tissue.
In data set [7] the target is T1, μ-opioid receptor (MOR). The arrangement: method as in PMID 9592058. The settings on record: rat thalamic membranes, cited from earlier work.
The conditions of data set [8]: estimated; cited from earlier work.
A further data set has as its target T4, human hMOR (Homo sapiens, UniProt P35372).
T4 construct: expressed in transfected cells
In words: [35S]GTPγS binding in hMOR-expressing CHO cells (Rothman lab). In kind it is biochemical.

The target of data set [9] is µ-opioid receptor (MOR) of rat brain (rat (endogenous in rat thalamus and brain sections)) (UniProt P33535).
Data set [10] concerns the target rat µ-opioid receptor (rMOR), recombinant (rat) (UniProt P33535).
Data set [11] has as its target mouse µ-opioid receptor (mMOR) (mouse) (UniProt P42866).
Data set [12] has as its target µ-opioid receptor (MOR) of rat brain (rat (endogenous in rat thalamus and brain sections)) (UniProt P33535). The source holds these as a separate data set.
In the next data set the test system is α2 receptor. The settings on record: cited from earlier work.
Setting [13] is: Sprague-Dawley rat thalamic membranes, concentrations up to 100 µM.
[14] abbreviates: concentrations up to 10^-5 M, Janowsky lab procedures or procedures of Pablo and Mash.
Setting [15] is: read-out: Agonist activity Emax (%).

“And” between values parts separate entries of the source, which are not always exact repeats. Identical values can stand only once. “Also recorded” adds a separate entry of the source. Counter-ions that a name gives are not always drawn. Like-named read-outs stand apart in the source and are kept apart here. Some results are limits rather than exact numbers.

µ-opioid receptor (MOR) of rat brain (rat (endogenous in rat thalamus and brain sections)), sequence (P33535 whole entry): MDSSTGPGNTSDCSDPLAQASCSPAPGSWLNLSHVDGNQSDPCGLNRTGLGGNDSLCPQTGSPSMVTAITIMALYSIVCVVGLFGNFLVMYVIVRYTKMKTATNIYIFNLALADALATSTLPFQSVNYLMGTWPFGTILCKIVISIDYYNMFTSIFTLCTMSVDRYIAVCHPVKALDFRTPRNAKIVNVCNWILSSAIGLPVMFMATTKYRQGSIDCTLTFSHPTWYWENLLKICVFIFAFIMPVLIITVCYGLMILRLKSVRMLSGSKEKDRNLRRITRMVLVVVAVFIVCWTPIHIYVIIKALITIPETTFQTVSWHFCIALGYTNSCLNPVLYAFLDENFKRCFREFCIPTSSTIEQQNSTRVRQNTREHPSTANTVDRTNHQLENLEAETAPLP
T1 sequence (P33535 whole entry): as above
T2 sequence (P42866 whole entry): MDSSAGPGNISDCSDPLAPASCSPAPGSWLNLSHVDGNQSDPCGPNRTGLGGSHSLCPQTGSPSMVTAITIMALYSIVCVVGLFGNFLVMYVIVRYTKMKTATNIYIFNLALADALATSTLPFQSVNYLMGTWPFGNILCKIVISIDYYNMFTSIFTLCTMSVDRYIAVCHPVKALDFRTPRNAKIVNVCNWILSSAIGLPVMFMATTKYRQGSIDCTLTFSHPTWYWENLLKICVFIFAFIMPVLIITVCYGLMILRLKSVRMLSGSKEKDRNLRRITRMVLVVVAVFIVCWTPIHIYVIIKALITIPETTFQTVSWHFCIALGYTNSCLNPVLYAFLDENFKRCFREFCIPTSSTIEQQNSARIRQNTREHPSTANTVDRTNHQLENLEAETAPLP
rat µ-opioid receptor (rMOR), recombinant (rat), sequence (P33535 whole entry): as the sequence (P33535 whole entry) above
T3 sequence (P33535 whole entry): as above
T4 sequence (P35372 whole entry): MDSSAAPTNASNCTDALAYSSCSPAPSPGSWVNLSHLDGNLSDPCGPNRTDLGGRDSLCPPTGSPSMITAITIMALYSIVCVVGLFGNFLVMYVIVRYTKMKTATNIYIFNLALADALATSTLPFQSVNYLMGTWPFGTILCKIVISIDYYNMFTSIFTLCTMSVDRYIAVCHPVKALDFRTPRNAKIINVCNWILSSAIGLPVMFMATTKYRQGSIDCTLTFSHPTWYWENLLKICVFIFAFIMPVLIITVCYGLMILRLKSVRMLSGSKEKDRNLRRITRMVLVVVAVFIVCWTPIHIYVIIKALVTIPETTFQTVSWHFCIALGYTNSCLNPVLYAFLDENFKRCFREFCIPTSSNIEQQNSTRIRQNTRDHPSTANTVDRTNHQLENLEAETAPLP
mouse µ-opioid receptor (mMOR) (mouse), sequence (P42866 whole entry): as the sequence (P42866 whole entry) above

For orientation: IC50 means the concentration that gives 50% inhibition. Read a high IC50 as weaker potency in that assay. The Ki is a measure of affinity in units of concentration, obtained from inhibition or displacement. Read a low Ki as tighter binding. One may read the solubility as how much of the substance goes into solution per volume. Lower therefore signals little dissolved substance. A word on the EC50: it is the concentration that produces a half-maximal response. `COCC[C@H]1CC2CN3CCc4c([nH]c5ccccc45)[C@](C(=O)OC)(C2)[C@H]13` [18-MC, 18-methoxycoronaridine]: at μ-opioid receptor (MOR) [1], the IC50 is 83.3 ± 19.4 µM; the Ki is 13 µM and 13.2 µM. For the same compound, the “stimulation of [35S]GTPγS binding” value on μ-opioid receptor (MOR) [1] (setting [13]) is “no significant stimulation; also recorded: no efficacy”. Moreover, the “affinity for the μ-opioid receptor (MOR)” value in the data set on μ-opioid receptor (MOR) [2] is “low micromolar range”. The compound also yielded a solubility in [3] of at least 1000 µM. For the same compound, on μ-opioid receptor (MOR) [4] (setting [14]), the “stimulation of [35S]GTPγS binding” value is “did not stimulate”. Besides, the “affinity for the NMDA receptor” value in the data set with NMDA receptor is “lacks significant affinity”. On mouse mMOR, the response was half-maximal at 3.42 ± 2.2 µM (EC50) and the Ki was determined as 19.1 ± 2.97 µM. Moreover, the Emax on mouse mMOR (setting [15]) stood at 19 ± 4%.

Consider `C[C@@H](NC(=O)[C@@H](N)Cc1ccc(O)cc1)C(=O)NCC(=O)N(C)[C@@H](Cc1ccccc1)C(=O)NCCO` [DAMGO, [D-Ala^2, N-MePhe^4, Gly-ol]-enkephalin, reference compound], for which, at μ-opioid receptor (MOR) [1] (Sprague-Dawley rat thalamic membranes), the “maximal level of stimulation of [35S]GTPγS binding over basal” value amounted to 214 ± 6%. Also, the Emax at μ-opioid receptor (MOR) [1] (setting [15]) was 100%; on rat rMOR it was 100%; at μ-opioid receptor (MOR) [5] (setting [15]), 100%; at μ-opioid receptor (MOR) [4] (setting [15]), 100%; on mouse mMOR (read-out: maximal stimulation of [35S]GTPγS binding over basal), 257 ± 12%.

For `CC[C@H]1C[C@@H]2C[C@H]3c4[nH]c5ccc(O)cc5c4CCN(C2)[C@@H]13` [Noribogaine, Noribogaine HCl], the IC50 on μ-opioid receptor (MOR) [1] is 84 ± 27.8 µM. The Ki on μ-opioid receptor (MOR) [1] was 13 µM and 13.3 µM; on mouse mMOR it was 38.3 ± 1.71 µM; on human hMOR, 1.48 ± 0.25 µM. The “stimulation of [35S]GTPγS binding” value was “no significant stimulation; also recorded: no efficacy” at μ-opioid receptor (MOR) [1] (setting [13]) and “did not stimulate” at μ-opioid receptor (MOR) [4] (setting [14]). Moreover, the “affinity for the μ-opioid receptor (MOR)” value with μ-opioid receptor (MOR) [2] is recorded as “low micromolar range”. For the same compound, the “effect on [35S]GTPγS binding in any brain region” value on μ-opioid receptor (MOR) [6] was “had no effect”. Besides, on μ-opioid receptor (MOR) [5] (Sprague-Dawley rat thalamic membranes (Childers lab), noribogaine up to 10 µM), the “inhibition of the stimulation evoked by 1 µM DAMGO” value was “did not inhibit”. The “effect on [35S]GTPγS binding by itself” value on μ-opioid receptor (MOR) [5] (concentrations up to 30 µM) is recorded as “did not have any effect”. In addition, the solubility in data set [3] was at least 1000 µM. For the same compound, at μ-opioid receptor (MOR) [7], the “agonist classification by naloxone-sensitive stimulation of [35S]GTPγS binding” value is “full MOR agonist”. The EC50 at μ-opioid receptor (MOR) [7] (read-out: EC50 for stimulating [35S]GTPγS binding) is 0.324 µM; on mouse mMOR, 7.42 ± 1.3 µM. Besides, the “half-life relative to parent compound” value in [8] is “considerably longer than that of the parent compound”. Moreover, on mouse mMOR (setting [15]), the Emax stood at 36 ± 6%.

Consider “DAMGO ([D-Ala^2, N-MePhe^4, Gly-ol]-enkephalin) (peptide)”, for which, in [9], the EC50 of stimulation of [35S]GTPγS binding, Sprague-Dawley and Fischer 344 rat thalamic membranes (Janowsky lab) is 0.122 µM; the EC50 of stimulation of [35S]GTPγS binding, Sprague-Dawley rat thalamic membranes (Childers lab) turned out to be 0.21 µM; the EC50 of stimulation of [35S]GTPγS binding, Sprague-Dawley rat thalamic membranes (Reith lab) worked out at 0.238 µM. Further, the EC50 of stimulation of [35S]GTPγS binding, CHO rMOR cell membranes (Janowsky lab) in data set [10] is 0.034 µM. This compound returned a maximal stimulation of [35S]GTPγS binding over basal, HEK 293-mMOR cell membranes (Reith lab) in data set [11] of 257 % over basal. In addition, in [12], the maximal stimulation of [35S]GTPγS binding over basal, Sprague-Dawley rat thalamic membranes (Reith lab) came to 214 % over basal.

As to Ibogaine HCl, the “stimulation of [35S]GTPγS binding” value at μ-opioid receptor (MOR) [1] is recorded as “no significant stimulation”; on μ-opioid receptor (MOR) [4], “did not stimulate”; at μ-opioid receptor (MOR) [7] (100 µM ibogaine) it was about 20%; on μ-opioid receptor (MOR) [7] (concentrations of 100 µM to 1 mM), 20-30%. The “affinity for the μ-opioid receptor (MOR)” value in the data set with μ-opioid receptor (MOR) [2] is reported as “low micromolar range”. The “affinity for the α2 receptor” value in the data set on α2 receptor is reported as “no significant affinity”.
